Results from patent US8445636B2, “Antimicrobial and anticancer lipopeptides” (Yeda Research & Development Co. Ltd., priority 2003, dated 2013).
Values after ≈ are worked out from the molar mass of the structure shown. One block for each molecule: values may come before it. Positions of bridges follow the written chain, without caps; N, C: chain ends. Non-standard residues stand in square brackets, D forms with d. Residues, ends and D or L forms follow the SMILES beside them. *: point of attachment. Palmitoyl = CCCCCCCCCCCCCCCC(=O)*; Myristoyl = CCCCCCCCCCCCCC(=O)*

Columns and labels:
[1] = in vitro; assay type: in vitro ADME, bovine; conditions: isolated enzyme trypsin, pH 7.3
Method: (§1) Equal amounts of the lipopeptides were dissolved in PBS (35 mM phosphate buffer/0.15 M NaCl, pH 7.3) to yield a final concentration of 140 μM to which 25 μM of either pepsin (from porcine stomach mucosa, Sigma), trypsin (from bovine pancreas, Sigma), or elastase (from human leukocytes, Sigma) were added. The samples were incubated under agitation for 30 min at 37° C. After addition of the appropriate protease inhibitor to stop the reaction, aliquots of the proteolytic digest were injected to C18 HPLC column and the amounts of the intact lipopeptide were evaluated using their absorbance at 215 nm.

[2] = in vitro; assay type: in vitro ADME, porcine; conditions: pig, isolated enzyme pepsin, pH 7.3
Method: as §1

[3] = Resistance to proteolytic digestion, intact lipopeptide by HPLC; assay type: in vitro ADME; conditions: human, elastase from human leukocytes; 140 μM lipopeptide, 25 μM protease, 30 min at 37° C., PBS pH 7.3
Method: as §1

[4] = system: Acinetobacter baumannii ATCC 19606; assay type: cell-based; conditions: ATCC 19606, pH 7.4
How it was run: (§2)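 Broth microdilution: bacteria at 1×10^6 CFU/ml in LB medium (pH 7.4 unless stated; pH 5.5 also tested) mixed 1:1 with 2-fold serial lipopeptide dilutions in water, 18-20 h at 37° C. Growth read at 600 nm; MIC taken as lowest concentration giving 100% growth inhibition.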

[5] = system: Enterobacter cloacae ATCC 49141; assay type: cell-based; conditions: ATCC 49141, pH 7.4
How it was run: as §2

[6] = system: Enterococcus faecalis ATCC 29212; assay type: cell-based; conditions: ATCC 29212, pH 7.4
How it was run: as §2

[7] = system: Escherichia coli ATCC 25922; assay type: cell-based; conditions: ATCC 25922, pH 7.4
How it was run: as §2

[8] = system: Pseudomonas aeruginosa ATCC 27853; assay type: cell-based; conditions: ATCC 27853, pH 7.4
How it was run: as §2

[9] = system: Staphylococcus aureus ATCC 6538P; assay type: cell-based; conditions: ATCC 6538, pH 7.4
How it was run: as §2

[10] = system: methicilin-resistant Staphylococcus aureus (MRSA) ATCC 700698; assay type: cell-based; conditions: ATCC 700698, pH 7.4
How it was run: as §2

[11] = system: vancomycin-resistant Enterococcus faecium (VRE) ATCC 700221; assay type: cell-based
How it was run: as §2

[12] = system: B. subtilis ATCC 6051; assay type: cell-based; conditions: ATCC 6051, pH 7.4
[13] = system: Candida albicans ATCC 10231; assay: microbe, parasite or virus in culture; assay type: cell-based; conditions: ATCC 10231, pH 7.4
How it was run: (§3)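 Broth microdilution in RPMI 1640/0.165 M MOPS, 1×10^4 CFU/ml inoculum, 2-fold serial lipopeptide dilutions in water, pH 7.4 unless stated (pH 5.5 alternative). Incubated 24–48 h at 35 °C with agitation; growth read at A620. MIC = lowest concentration giving 100% growth inhibition.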

[14] = system: Cryptococcus neoformans ATCC 66031; assay: microbe, parasite or virus in culture; assay type: cell-based; conditions: ATCC 66031, pH 7.4
How it was run: as §3

[15] = system: Cryptococcus neoformans ATCC MYA-422; assay: microbe, parasite or virus in culture; assay type: cell-based; conditions: ATCC MYA-422, pH 7.4
[16] = system: Aspergillus fumigatus ATCC 26430; assay: microbe, parasite or virus in culture; assay type: cell-based; conditions: ATCC 26430, pH 7.4
[17] = system: Aspergillus flavus ATCC 9643; assay type: cell-based; conditions: ATCC 9643, pH 7.4
[18] = system: Aspergillus niger ATCC 9642; assay type: cell-based; conditions: ATCC 9642, pH 7.4
Method: The antifungal activity of the lipopeptides was examined in sterile 96-well plates (Nunc F96 microtiter plates) in a final volume of 200 μL as follows: 100 µl of a suspension containing fungi at a concentration of 1×10^4 Colony-Forming Units (CFU)/ml in culture medium (RPMI 1640, 0.165 M MOPS with L-glutamine, without NaHCO3) at pH 7.4 or pH 5.5 (adjustment of the pH was done by diluted solutions of HCl and NaOH) were added to 100 μl of water containing the peptide in serial 2-fold dilutions in water. The fungi were incubated in the presence of the lipopeptides for 24-48 h at 35° C. in a Binder KB115 incubator under agitation. Growth inhibition was determined by measuring the absorbance at 620 nm with a Microplate autoreader E1309 (Bio-Tek Instruments). Antifungal activity is expressed as the minimal inhibitory concentration (MIC), the concentration at which 100% inhibition of fungi growth was observed after the incubation time mentioned above. The fungi used were: Aspergillus niger ATCC 9642, Candida albicans ATCC 10231 and Cryptococcus neoformans ATCC 66031. If not indicated otherwise, the fungi growth was detected at pH 7.4.

[19] = system: Prostate cancer cell line 22RV1; assay: Cytotoxicity, XTT viability; assay type: cell-based, human; conditions: 24 h incubation, read-out: LC50, Prostate cancer 22RV1
Method: (§4) Prostate cancer cell lines (CL1 and 22RV1; ATCC, USA) were grown in RPMI-1640 supplemented with 10% FCS (Biological Industries, Beit Haemek, Israel). N1H-3T3 mouse fibroblast cell line (ATCC, USA) was grown in DMEM supplemented with 10% bovine serum. To test cytotoxicity against the cancer cells, aliquots of medium containing 1×10^4 cells were distributed into a 96-well plate (Falcon). After one day, the media were replaced with 90 μl of fresh media and 10 μl of a solution containing different concentrations of the peptides. The plate was then incubated for 24 h before adding to each well 50 μl of XTT reaction solution (Biological Industries, Beit Haemek, Israel); viability was determined as previously described (Papo et al., (2003) J. Biol. Chem. 278:21018-23). The LC50 (concentration at which 50% of the cells die) for each peptide was obtained from the dose-dependent cell viability curves.

[20] = system: Prostate cancer cell line CL1; assay: Cytotoxicity, XTT viability; assay type: cell-based, human; conditions: 24 h incubation, read-out: LC50, Prostate cancer CL1
Method: as §4

[21] = Cytotoxicity, XTT viability, non-cancer cells; assay type: cell-based; conditions: mouse, non-cancer cell line, 24 h incubation, read-out: LC50, 3T3
Method: as §4

metabolised at 0.5 h, 140 μM [1]: 100%
metabolised at 0.5 h, 140 μM [2]: 100%
metabolised at 0.5 h, 140 μM [3]: 100%
SMILES: CCCCCCCCCCCCCC(=O)N[C@H]1CSSC[C@@H](C(N)=O)NC(=O)[C@H](CCCCN)NC(=O)CNC(=O)CNC(=O)[C@H](CCCCN)NC(=O)CNC(=O)CNC(=O)CNC(=O)[C@H](CCCCN)NC(=O)CNC(=O)CNC(=O)CNC(=O)[C@H](CCCCN)NC1=O [lipopeptide 19] (Myristoyl-CKGGGKGGGKGGKC-NH2; disulfide 1-14)

metabolised at 0.5 h, 140 μM [1]: 0%
metabolised at 0.5 h, 140 μM [2]: 0%
metabolised at 0.5 h, 140 μM [3]: 0%
SMILES: CCCCCCCCCCCCCC(=O)N[C@H]1CSSC[C@@H](C(N)=O)NC(=O)[C@@H](CCCCN)NC(=O)CNC(=O)CNC(=O)[C@@H](CCCCN)NC(=O)CNC(=O)CNC(=O)CNC(=O)[C@@H](CCCCN)NC(=O)CNC(=O)CNC(=O)CNC(=O)[C@@H](CCCCN)NC1=O [lipopeptide 16] (Myristoyl-C[dK]GGG[dK]GGG[dK]GG[dK]C-NH2; disulfide 1-14)

MIC ([13]; read-out: Minimal Inhibitory Concentration, Candida Albicans (ATCC 10231)): 3.125 µM (≈ 3.83 µg/mL)
SMILES: CCCCCCCCCCCCCCCC(=O)N[C@H](CCCCN)C(=O)NCC(=O)NCC(=O)NCC(=O)N[C@H](CCCCN)C(=O)NCC(=O)NCC(=O)NCC(=O)N[C@H](CCCCN)C(=O)NCC(=O)NCC(=O)N[C@H](CCCCN)C(N)=O [lipopeptide 2, (CH3—(CH2)14—CO—)-D-Lys-Gly-Gly-Gly-D-Lys-Gly-Gly-Gly-D-Lys-Gly-Gly-D-Lys-NH2] (Palmitoyl-[dK]GGG[dK]GGG[dK]GG[dK]-NH2)
Minimal Inhibitory Concentration, A. Baumaannii [4]: 25 µM
Minimal Inhibitory Concentration, A. baumannii ATCC 19606 [4]: 25 µM
Minimal Inhibitory Concentration, E. cloacae [5]: 25 µM
Minimal Inhibitory Concentration, E. faecalis [6]: 12.5 µM
Minimal Inhibitory Concentration, E. coli [7]: 25 µM
Minimal Inhibitory Concentration, E. coli (ATCC 25922) [7]: 25 µM
Minimal Inhibitory Concentration, P. Aeruginosa [8]: 6.25 µM
Minimal Inhibitory Concentration, P. aeruginosa ATCC 27853 [8]: 6.25 µM
Minimal Inhibitory Concentration, S. aureus [9]: 12.5 µM
Minimal Inhibitory Concentration, S. aureus ATCC 6538P [9]: 12.5 µM
Minimal Inhibitory Concentration, S. aureus (MRSA) [10]: 12.5 µM
Minimal Inhibitory Concentration, E. faecium (VRE) ([11]; ATCC 700221, pH 7.4): 3.125 µM
activity against VRE ([11]; in words, summary of Table 4): highly active
Minimal Inhibitory Concentration, B. subtilis (ATCC 6051) [12]: 3.125 µM
Minimal Inhibitory Concentration, C. albicans ATCC 10231 [13]: 3.125 µM
Minimal Inhibitory Concentration, C. neoformans ATCC 66031 [14]: 6.25 µM
Minimal Inhibitory Concentration, Cryptococcus neoformans (ATCC MYA-422) [15]: 6.25 µM
Minimal Inhibitory Concentration, A. fumigatus ATCC 26430 [16]: 12.5 µM
Minimal Inhibitory Concentration, Aspergillus fumigatus (ATCC 26430) [16]: 12.5 µM
Minimal Inhibitory Concentration, Aspergillus flavus (ATCC 9643) [17]: 100 µM
Minimal Inhibitory Concentration, Aspergillus niger (ATCC 9642) [18]: 6.25 µM

SMILES: CC(C)C[C@@H](N)C(=O)N[C@@H](CCCNC(=N)N)C(=O)N[C@@H](CCCNC(=N)N)C(=O)N[C@H](CC(C)C)C(=O)N[C@H](CC(C)C)C(=O)N[C@@H](CCCNC(=N)N)C(=O)N[C@@H](CCCNC(=N)N)C(=O)N[C@H](CC(C)C)C(=O)N[C@H](CC(C)C)C(=O)N[C@@H](CCCNC(=N)N)C(=O)N[C@@H](CCCNC(=N)N)C(=O)N[C@H](CC(C)C)C(N)=O [DL6R6, LRRLLRRLLRRL, reference compound] (H-[dL]RR[dL][dL]RR[dL][dL]RR[dL]-NH2; N-terminus assumed)
CC50 [19]: 50 µM
CC50 [20]: > 100 µM
CC50 at 24 h [21]: > 100 µM
